Tests used:
PTPN2 [1] = target: T1, PTPN2 (Mus musculus, UniProt Q06180); assay: HiBiT PTPN2 degradation in B16F10.4 cells, 24 hours; format: cell-based
T1 construct: HiBiT; host or cells: B16F10.4
T1 sequence (Q06180 1-406): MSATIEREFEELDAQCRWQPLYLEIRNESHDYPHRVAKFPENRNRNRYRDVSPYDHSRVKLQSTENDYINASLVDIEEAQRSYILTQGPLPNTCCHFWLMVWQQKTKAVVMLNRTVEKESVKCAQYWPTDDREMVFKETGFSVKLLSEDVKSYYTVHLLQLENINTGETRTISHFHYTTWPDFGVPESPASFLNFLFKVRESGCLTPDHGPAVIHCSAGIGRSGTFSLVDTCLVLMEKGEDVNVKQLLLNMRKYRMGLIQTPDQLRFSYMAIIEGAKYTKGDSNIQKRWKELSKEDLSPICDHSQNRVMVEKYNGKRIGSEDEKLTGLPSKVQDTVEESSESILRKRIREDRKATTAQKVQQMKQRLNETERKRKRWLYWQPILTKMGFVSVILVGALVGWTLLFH
Experimental: (§1) PTPN2 degradation was determined based on quantification of luminescent signal using Nano-Glo® HiBiT Lytic Assay kit. Test compounds were added to the 384-well plate from a top concentration of 10 μM with 11 points, half log titration in duplicates. 293T. 109 cells were added into 384-well plates at a cell density of 5000 cells per well. The plates were kept at 37° C. with 5% CO2 for 24 hours. The cells treated in the absence of the test compound were the negative control and the cells without Nano-Glo® HiBiT Lytic reagent were the positive control. After 24-hour incubation, Nano-Glo® HiBiT Lytic Assay reagents were added to the cells. Luminescence was acquired on EnVision™ Multilabel Reader (PerkinElmer, Santa Clara, CA, USA).

PTPN2 [2] = target: T2, PTPN2 (Homo sapiens, UniProt P17706); assay: HiBiT PTPN2 degradation in 293T.109 (HiBiT-PTPN2) cells, 24 hours; format: cell-based; details: 293T.109 cells
T2 construct: expressed in transfected cells; host or cells: 293T.109 (HiBiT-PTPN2), derived from 293T WT (ATCC)
T2 sequence (P17706 1-415): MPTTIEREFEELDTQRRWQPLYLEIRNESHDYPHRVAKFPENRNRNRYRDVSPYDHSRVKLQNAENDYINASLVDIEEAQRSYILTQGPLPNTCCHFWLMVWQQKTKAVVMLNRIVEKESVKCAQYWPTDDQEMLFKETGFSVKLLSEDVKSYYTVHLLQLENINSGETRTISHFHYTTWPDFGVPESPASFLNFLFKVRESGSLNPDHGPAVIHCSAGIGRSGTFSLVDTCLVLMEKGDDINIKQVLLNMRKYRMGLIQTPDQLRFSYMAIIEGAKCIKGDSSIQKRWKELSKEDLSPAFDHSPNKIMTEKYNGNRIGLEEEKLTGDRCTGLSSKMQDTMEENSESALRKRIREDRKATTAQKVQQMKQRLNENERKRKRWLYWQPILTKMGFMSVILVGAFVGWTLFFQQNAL
Text: Dulbecco's modified Eagle medium (DMEM) without phenol red and fetal bovine serum (FBS) were purchased from Gibco (Grand Island, NY, USA). Nano-Glo® HiBiT Lytic Assay System was purchased from Promega (Medison, WI, USA). 293T. 109 (HiBiT-PTPN2) cell line was generated by ectopically expressing PTPN2 with N-terminal HiBiT fusion tag in 293T WT cell line purchased from ATCC (Manassas, VA, USA). Cell culture flasks and 384-well microplates were acquired from VWR (Radnor, PA, USA).
PTPN2 Degradation Analysis
as §1

| SMILES | DC50 (PTPN2 [1]) | DC50 (PTPN2 [2]) |
| --- | --- | --- |
| Cn1c(=O)n(C2CCC(=O)NC2=O)c2ccc(-c3ccc(CC(=O)Nc4ccc5c(F)c(N6CC(=O)NS6(=O)=O)c(O)cc5c4)c(F)c3)cc21 (stereo not drawn) [Degrader 33] | 50 to 150 nM | 50 to 150 nM |
| Cn1c(=O)n(C2CCC(=O)NC2=O)c2ccc(CC3CCN(C(=O)Nc4ccc5c(F)c(N6CC(=O)NS6(=O)=O)c(O)cc5c4)CC3)cc21 (stereo not drawn) [Degrader 34] | ≥ 500 nM | ≥ 500 nM |
| CC(C)n1c(=O)n(C2CCC(=O)NC2=O)c2ccc(N3CCC(CC(=O)Nc4ccc5c(F)c(N6CC(=O)NS6(=O)=O)c(O)cc5c4)CC3)cc21 (stereo not drawn) [Degrader 35] | 150 to 500 nM | ≥ 500 nM |
| Cn1c(=O)n(C2CCC(=O)NC2=O)c2ccc(C3CCN(CC(=O)Nc4ccc5c(F)c(N6CC(=O)NS6(=O)=O)c(O)cc5c4)CC3F)cc21 (stereo not drawn) [Degrader 36] | < 50 nM | < 50 nM |
| Cn1c(=O)n(C2CCC(=O)NC2=O)c2ccc([C@H]3CCN(CC(=O)Nc4ccc5c(F)c(N6CC(=O)NS6(=O)=O)c(O)cc5c4)C[C@@H]3F)cc21 (stereo partly drawn) [Degrader 37] | 50 to 150 nM | 50 to 150 nM |
| Cn1c(=O)n(C2CCC(=O)NC2=O)c2ccc([C@@H]3CCN(CC(=O)Nc4ccc5c(F)c(N6CC(=O)NS6(=O)=O)c(O)cc5c4)C[C@H]3F)cc21 (stereo partly drawn) [Degrader 38] | < 50 nM | < 50 nM |
| Cn1nc(C2CCC(=O)NC2=O)c2ccc(Oc3ccc(CC(=O)Nc4ccc5c(F)c(N6CC(=O)NS6(=O)=O)c(O)cc5c4)cc3)cc21 (stereo not drawn) [Degrader 39] | 150 to 500 nM | 50 to 150 nM |
| Cn1c(=O)n(C2CCC(=O)NC2=O)c2ccc(-c3ccc(CC(=O)Nc4ccc5c(F)c(N6CC(=O)NS6(=O)=O)c(O)cc5c4)cc3)c(F)c21 (stereo not drawn) [Degrader 40] | 150 to 500 nM | 150 to 500 nM |
| Cn1nc(C2CCC(=O)NC2=O)c2ccc(Nc3ccc(CC(=O)Nc4ccc5c(F)c(N6CC(=O)NS6(=O)=O)c(O)cc5c4)cc3F)cc21 (stereo not drawn) [Degrader 41] | 50 to 150 nM | < 50 nM |
| Cn1c(=O)n(C2CCC(=O)NC2=O)c2ccc(Nc3cnn(CC(=O)Nc4ccc5c(F)c(N6CC(=O)NS6(=O)=O)c(O)cc5c4)c3)cc21 (stereo not drawn) [Degrader 42] | 50 to 150 nM | 50 to 150 nM |
| Cn1c(=O)n(C2CCC(=O)NC2=O)c2cc(F)c(N3CCC(CC(=O)Nc4ccc5c(F)c(N6CC(=O)NS6(=O)=O)c(O)cc5c4)CC3)cc21 (stereo not drawn) [Degrader 43] | 150 to 500 nM | < 50 nM |
| Cn1c(=O)n(C2CCC(=O)NC2=O)c2cc(F)c(-c3ccc(CC(=O)Nc4ccc5c(F)c(N6CC(=O)NS6(=O)=O)c(O)cc5c4)cc3)cc21 (stereo not drawn) [Degrader 44] | 150 to 500 nM | 150 to 500 nM |
| COCCn1c(=O)n(C2CCC(=O)NC2=O)c2ccc(-c3ccc(CC(=O)Nc4ccc5c(F)c(N6CC(=O)NS6(=O)=O)c(O)cc5c4)cc3)cc21 (stereo not drawn) [Degrader 45] | 150 to 500 nM | 150 to 500 nM |
| Cn1c(=O)n(C2CCC(=O)NC2=O)c2ccc(N3CCC(CC(=O)Nc4ccc5c(F)c(N6CC(=O)NS6(=O)=O)c(O)cc5c4)CC3)c(F)c21 (stereo not drawn) [Degrader 46] | 150 to 500 nM | 50 to 150 nM |
| CCn1c(=O)n(C2CCC(=O)NC2=O)c2ccc(-c3ccc(CC(=O)Nc4ccc5c(F)c(N6CC(=O)NS6(=O)=O)c(O)cc5c4)cc3F)cc21 (stereo not drawn) [Degrader 47] | < 50 nM | 50 to 150 nM |
| Cn1nc(C2CCC(=O)NC2=O)c2ccc(Nc3ccc(CC(=O)Nc4ccc5c(F)c(N6CC(=O)NS6(=O)=O)c(O)cc5c4)cc3)cc21 (stereo not drawn) [Degrader 48] | 50 to 150 nM | 50 to 150 nM |
| CCn1c(=O)n(C2CCC(=O)NC2=O)c2ccc(-c3ccc(CC(=O)Nc4ccc5c(F)c(N6CC(=O)NS6(=O)=O)c(O)cc5c4)cc3)cc21 (stereo not drawn) [Degrader 49] | 50 to 150 nM | 50 to 150 nM |

| SMILES | DC50 (PTPN2 [1]) | DC50 (PTPN2 [2]) |
| --- | --- | --- |
| Cn1c(=O)n(C2CCC(=O)NC2=O)c2ccc(C3CC4CCC(C3)N4CC(=O)Nc3ccc4c(F)c(N5CC(=O)NS5(=O)=O)c(O)cc4c3)cc21 (stereo not drawn) [Degrader 50] | 150 to 500 nM | 50 to 150 nM |
| Cn1c(=O)n(C2CCC(=O)NC2=O)c2ccc(C3CC4CCC(C3)N4CC(=O)Nc3ccc4c(F)c(N5CC(=O)NS5(=O)=O)c(O)cc4c3)cc21 (stereo not drawn) [Degrader 51] | 150 to 500 nM | 50 to 150 nM |
| Cn1c(=O)n(C2CCC(=O)NC2=O)c2ccc(C3CCN(CCNC(=O)Nc4ccc5c(F)c(N6CC(=O)NS6(=O)=O)c(O)cc5c4)CC3)cc21 (stereo not drawn) [Degrader 52] | 50 to 150 nM | < 50 nM |
| O=C1CCC(N2C(=O)c3cccc4c(N5CCC(CCNC(=O)Nc6ccc7c(F)c(N8CC(=O)NS8(=O)=O)c(O)cc7c6)CC5)ccc2c34)C(=O)N1 (stereo not drawn) [Degrader 53] | < 50 nM | < 50 nM |
| O=C(CCC(=O)Nc1ccc2c(F)c(N3CC(=O)NS3(=O)=O)c(O)cc2c1)NCc1ccc2c3c(cccc13)C(=O)N2C1CCC(=O)NC1=O (stereo not drawn) [Degrader 54] | ≥ 500 nM | 150 to 500 nM |
| Cn1c(=O)n(C2CCC(=O)NC2=O)c2cc(F)c(N3CCN(CC(=O)Nc4ccc5c(F)c(N6CC(=O)NS6(=O)=O)c(O)cc5c4)CC3)cc21 (stereo not drawn) [Degrader 55] | 150 to 500 nM | 50 to 150 nM |
| Cn1c(=O)n(C2CCC(=O)NC2=O)c2ccc(-c3ccc(CC(=O)Nc4ccc5c(F)c(N6CC(=O)NS6(=O)=O)c(O)cc5c4)cc3F)c(F)c21 (stereo not drawn) [Degrader 56] | 50 to 150 nM | 150 to 500 nM |
| Cn1c(=O)n(C2CCC(=O)NC2=O)c2ccc(N3CCN(CC(=O)Nc4ccc5c(F)c(N6CC(=O)NS6(=O)=O)c(O)cc5c4)CC3)c(F)c21 (stereo not drawn) [Degrader 57] | 150 to 500 nM | 50 to 150 nM |
| Cn1c(=O)n(C2CCC(=O)NC2=O)c2cc(F)c(N3CCC(CCNC(=O)Nc4ccc5c(F)c(N6CC(=O)NS6(=O)=O)c(O)cc5c4)CC3)cc21 (stereo not drawn) [Degrader 58] | 150 to 500 nM | < 50 nM |
| Cn1c(=O)n(C2CCC(=O)NC2=O)c2ccc(C3CCN(CCNC(=O)c4ccc5c(F)c(N6CC(=O)NS6(=O)=O)c(O)cc5c4)CC3(F)F)cc21 (stereo not drawn) [Degrader 59] | 50 to 150 nM | 150 to 500 nM |
| Cn1c(=O)n(C2CCC(=O)NC2=O)c2ccc(-c3ccc(CC(=O)Nc4ccc5c(F)c(N6CC(=O)NS6(=O)=O)c(O)cc5c4)cc3)nc21 (stereo not drawn) [Degrader 60] | 50 to 150 nM | 150 to 500 nM |
| Cn1nc(C2CCC(=O)NC2=O)c2ccc(C3CCN(CCNC(=O)c4ccc5c(F)c(N6CC(=O)NS6(=O)=O)c(O)cc5c4)CC3(F)F)cc21 (stereo not drawn) [Degrader 61] | 150 to 500 nM | 150 to 500 nM |
| Cn1c(=O)n(C2CCC(=O)NC2=O)c2cccc(N3CCC(CCNC(=O)Nc4ccc5c(F)c(N6CC(=O)NS6(=O)=O)c(O)cc5c4)CC3)c21 (stereo not drawn) [Degrader 62] | 150 to 500 nM | 150 to 500 nM |
| CCn1c(=O)n(C2CCC(=O)NC2=O)c2ccc(C3CCN([C@H](CO)C(=O)Nc4ccc5c(F)c(N6CC(=O)NS6(=O)=O)c(O)cc5c4)CC3)cc21 (stereo partly drawn) [Degrader 63] | < 50 nM | < 50 nM |
| CCn1c(=O)n(C2CCC(=O)NC2=O)c2ccc(C3CCN([C@@H](CO)C(=O)Nc4ccc5c(F)c(N6CC(=O)NS6(=O)=O)c(O)cc5c4)CC3)cc21 (stereo partly drawn) [Degrader 64] | 50 to 150 nM | < 50 nM |
| C[C@H]1CN(CC(=O)Nc2ccc3c(F)c(N4CC(=O)NS4(=O)=O)c(O)cc3c2)CCN1c1cc2c(cc1F)n(C1CCC(=O)NC1=O)c(=O)n2C (stereo partly drawn) [Degrader 65] | ≥ 500 nM | 150 to 500 nM |

Reference: patent publication US20240424111A1, “Degrader Compounds and Uses Thereof” (CALICO LIFE SCIENCES LLC, priority 2021, published 2024)
